Species on record: Rattus norvegicus
Assay: DrugMatrix - Regimen: Daily Repeat
Assay type: toxicity, organism-based, Sprague-Dawley
Parameters: regimen Daily Repeat, gender Male, age 6-8 weeks
Settings: in vivo, po, route oral GAVAGE, […]; for ABSOLUTE BASOPHIL / ABSOLUTE EOSINOPHIL / ABSOLUTE LYMPHOCYTE / ABSOLUTE MONOCYTE / ABSOLUTE SEGMENTED NEUTROPHIL / BASOPHIL / EOSINOPHIL / ERYTHROCYTE COUNT / HEMATOCRIT / HEMOGLOBIN / LEUKOCYTE COUNT / LYMPHOCYTE / MEAN CORPUSCULAR HEMOGLOBIN / MEAN CORPUSCULAR HEMOGLOBIN CONCENTRATION / MEAN CORPUSCULAR VOLUME / MONOCYTE / NEUTROPHIL / NUCLEATED RED BLOOD CELLS / PLATELET COUNT: tissue Blood; for ALANINE AMINOTRANSFERASE / ALBUMIN / ALKALINE PHOSPHATASE / ASPARTATE AMINOTRANSFERASE / BLOOD UREA NITROGEN / CARBON DIOXIDE / CHLORIDE / CHOLESTEROL / CREATINE PHOSPHOKINASE / CREATININE / GLUCOSE / LACTATE DEHYDROGENASE / LIPASE / PHOSPHORUS / POTASSIUM / SODIUM / TOTAL BILIRUBIN / TOTAL PROTEIN / URIC ACID: tissue Plasma
[1] = 0.05 mg/kg, 120 h, dose level Low, time 5 day
[2] = 7 mg/kg, 72 h, dose level High, time 3 day
[3] = 7 mg/kg, 120 h, dose level High, time 5 day

Compound: COCc1c(C(C)C)nc(C(C)C)c(/C=C/[C@@H](O)C[C@@H](O)CC(=O)O)c1-c1ccc(F)cc1 [CERIVASTATIN]
- ABSOLUTE BASOPHIL [1]: 0 CELLS/uL
- ABSOLUTE EOSINOPHIL [1]: 39 CELLS/uL
- ABSOLUTE LYMPHOCYTE [1]: 10187.67 CELLS/uL
- ABSOLUTE MONOCYTE [1]: 164.67 CELLS/uL
- ABSOLUTE SEGMENTED NEUTROPHIL [1]: 875.33 CELLS/uL
- BASOPHIL [1]: 0%
- EOSINOPHIL [1]: 0.33%
- ERYTHROCYTE COUNT [1]: 5.9 x10E6/uL
- HEMATOCRIT [1]: 36.4%
- HEMOGLOBIN [1]: 13.87 G/DL
- LEUKOCYTE COUNT [1]: 11.27 x10E3/uL
- LYMPHOCYTE [1]: 90.33%
- MEAN CORPUSCULAR HEMOGLOBIN [1]: 23.53 pg
- MEAN CORPUSCULAR HEMOGLOBIN CONCENTRATION [1]: 38.1 G/DL
- MEAN CORPUSCULAR VOLUME [1]: 61.73 fL
- MONOCYTE [1]: 1.33%
- NEUTROPHIL [1]: 8%
- NUCLEATED RED BLOOD CELLS [1]: 0 /100WBC
- PLATELET COUNT [1]: 1545 x10E3/uL
- ALANINE AMINOTRANSFERASE [1]: 66.33 u/L
- ALBUMIN [1]: 4.1 G/DL
- ALKALINE PHOSPHATASE [1]: 440.67 u/L
- ASPARTATE AMINOTRANSFERASE [1]: 90 u/L
- BLOOD UREA NITROGEN [1]: 14.67 mg/dL
- CARBON DIOXIDE [1]: 32 mmol/L
- CHLORIDE [1]: 101 MEQ/L
- CHOLESTEROL [1]: 63.67 mg/dL
- CREATINE PHOSPHOKINASE [1]: 453 u/L
- CREATININE [1]: 0.19 mg/dL
- GLUCOSE [1]: 143.33 mg/dL
- LACTATE DEHYDROGENASE [1]: 112.33 u/L
- LIPASE [1]: 11.33 u/L
- PHOSPHORUS [1]: 10.8 mg/dL
- POTASSIUM [1]: 6.11 MEQ/L
- SODIUM [1]: 144.4 MEQ/L
- TOTAL BILIRUBIN [1]: 0.17 mg/dL
- TOTAL PROTEIN [1]: 5.87 G/DL
- URIC ACID [1]: 1.37 mg/dL
- ABSOLUTE BASOPHIL [2]: 0 CELLS/uL
- ABSOLUTE EOSINOPHIL [2]: 0 CELLS/uL
- ABSOLUTE LYMPHOCYTE [2]: 7320 CELLS/uL
- ABSOLUTE MONOCYTE [2]: 110 CELLS/uL
- ABSOLUTE SEGMENTED NEUTROPHIL [2]: 1470 CELLS/uL
- BASOPHIL [2]: 0%
- EOSINOPHIL [2]: 0%
- ERYTHROCYTE COUNT [2]: 6.07 x10E6/uL
- HEMATOCRIT [2]: 37.7%
- HEMOGLOBIN [2]: 14.3 G/DL
- LEUKOCYTE COUNT [2]: 8.9 x10E3/uL
- LYMPHOCYTE [2]: 81.67%
- MEAN CORPUSCULAR HEMOGLOBIN [2]: 23.6 pg
- MEAN CORPUSCULAR HEMOGLOBIN CONCENTRATION [2]: 37.93 G/DL
- MEAN CORPUSCULAR VOLUME [2]: 62.2 fL
- MONOCYTE [2]: 1.33%
- NEUTROPHIL [2]: 17%
- NUCLEATED RED BLOOD CELLS [2]: 0 /100WBC
- PLATELET COUNT [2]: 1276.33 x10E3/uL
- ALANINE AMINOTRANSFERASE [2]: 401.33 u/L
- ALBUMIN [2]: 4.23 G/DL
- ALKALINE PHOSPHATASE [2]: 440.67 u/L
- ASPARTATE AMINOTRANSFERASE [2]: 730.67 u/L
- BLOOD UREA NITROGEN [2]: 14.33 mg/dL
- CARBON DIOXIDE [2]: 34.67 mmol/L
- CHLORIDE [2]: 99.33 MEQ/L
- CHOLESTEROL [2]: 65.33 mg/dL
- CREATINE PHOSPHOKINASE [2]: 536.67 u/L
- CREATININE [2]: 0.21 mg/dL
- GLUCOSE [2]: 138.33 mg/dL
- LACTATE DEHYDROGENASE [2]: 823 u/L
- LIPASE [2]: 11.33 u/L
- PHOSPHORUS [2]: 10.17 mg/dL
- POTASSIUM [2]: 6.19 MEQ/L
- SODIUM [2]: 145.1 MEQ/L
- TOTAL BILIRUBIN [2]: 0.13 mg/dL
- TOTAL PROTEIN [2]: 5.9 G/DL
- URIC ACID [2]: 1.17 mg/dL
- ABSOLUTE BASOPHIL [3]: 0 CELLS/uL
- ABSOLUTE EOSINOPHIL [3]: 0 CELLS/uL
- ABSOLUTE LYMPHOCYTE [3]: 5700.67 CELLS/uL
- ABSOLUTE MONOCYTE [3]: 483.33 CELLS/uL
- ABSOLUTE SEGMENTED NEUTROPHIL [3]: 1949.33 CELLS/uL
- BASOPHIL [3]: 0%
- EOSINOPHIL [3]: 0%
- ERYTHROCYTE COUNT [3]: 6.32 x10E6/uL
- HEMATOCRIT [3]: 41%
- HEMOGLOBIN [3]: 15.23 G/DL
- LEUKOCYTE COUNT [3]: 8.13 x10E3/uL
- LYMPHOCYTE [3]: 68.33%
- MEAN CORPUSCULAR HEMOGLOBIN [3]: 24.1 pg
- MEAN CORPUSCULAR HEMOGLOBIN CONCENTRATION [3]: 37.17 G/DL
- MEAN CORPUSCULAR VOLUME [3]: 64.93 fL
- MONOCYTE [3]: 5.67%
- NEUTROPHIL [3]: 26%
- NUCLEATED RED BLOOD CELLS [3]: 0 /100WBC
- PLATELET COUNT [3]: 1312.67 x10E3/uL
- ALANINE AMINOTRANSFERASE [3]: 247.33 u/L
- ALBUMIN [3]: 3.9 G/DL
- ALKALINE PHOSPHATASE [3]: 548.33 u/L
- ASPARTATE AMINOTRANSFERASE [3]: 624.67 u/L
- BLOOD UREA NITROGEN [3]: 19 mg/dL
- CARBON DIOXIDE [3]: 35.67 mmol/L
- CHLORIDE [3]: 93 MEQ/L
- CHOLESTEROL [3]: 85 mg/dL
- CREATINE PHOSPHOKINASE [3]: 915.67 u/L
- CREATININE [3]: 0.27 mg/dL
- GLUCOSE [3]: 124.33 mg/dL
- LACTATE DEHYDROGENASE [3]: 295 u/L
- LIPASE [3]: 13 u/L
- PHOSPHORUS [3]: 8 mg/dL
- POTASSIUM [3]: 5.51 MEQ/L
- SODIUM [3]: 142.73 MEQ/L
- TOTAL BILIRUBIN [3]: 0.13 mg/dL
- TOTAL PROTEIN [3]: 6.1 G/DL
- URIC ACID [3]: 0.87 mg/dL

From ChEMBL document CHEMBL3885881, “DrugMatrix”
